According to patent US20230355646A1, “AUTOPHAGY ACTIVATOR” (Resonac Corporation, priority 2020, published 2023):

Test system: ATG7 gene
Test: ATG7 gene expression promoting effect in human senescent fibroblasts (quantitative real-time PCR)
Assay type: cell-based
Experimental: Normal human fibroblasts (NB1RGB, RIKEN BRC Cell Bank) were cultured until confluent in D-MEM medium (manufactured by Sigma-Aldrich) to which 10% fetal bovine serum (manufactured by MP Biomedicals) was added. Thereafter, the cells were treated with 250 μM aqueous hydrogen peroxide for 2 hours, and cultured for 24 hours in D-MEM medium to which fresh 10% fetal bovine serum was added. The treatment with aqueous hydrogen peroxide and the cell culture operation were repeated three times, and the obtained fibroblasts were used as senescent fibroblasts.
The prepared senescent fibroblasts were prepared at a seeding density of 10000 cells/cm^2 and cultured for 24 hours in D-MEM medium (manufactured by Sigma-Aldrich) to which 10% fetal bovine serum (manufactured by MP Biomedicals) was added. […]
Then, using Nucleospin (registered trademark) RNA kit (manufactured by Takara Bio Inc.), RNA was extracted from senescent fibroblasts or normal human fibroblasts in each example, and cDNA was synthesized from the obtained RNA. Next, using this cDNA as a template, by quantitative real-time PCR, the expression level of each gene was quantified using primers (manufactured by Takara Bio Inc.) specific to the LC3 gene, ATG5 gene, and ATG7 gene, respectively. […]

Q: Which results are given for `COc1ccc([C@@H]2CC(=O)c3c(O)cc(O[C@@H]4O[C@H](CO[C@@H]5O[C@@H](C)[C@H](O)[C@@H](O)[C@H]5O)[C@@H](O)[C@H](O)[C@H]4O)cc3O2)cc1O` [Comparative Example 2, hesperidin]?
A: Relative gene expression level ATG7 (10^−2% (V/V) methyl hesperidin or hesperidin, additional ingredient where in the example, 24 hours, Comparative Example 1 (DMSO) = 1.00): 0.76; expression level of the ATG7 gene (in words) (compared to DMSO only of Comparative Example 1): more decreased
